According to US8076487B2, “Pyridone derivative and herbicide” (Kumiai Chemical Industry Co., Ltd., priority 2006, dated 2011):

Assays:
Format in all cases: in vivo
[1] = tested on: velvetleaf (Abutilon theophrasti medicus); assay: Test Example 2: herbicidal effect by soil application to upland field; conditions: soil surface spray, upland field soil, 1,000 g active ingredient per hectare, 21st day after application
Procedure, shortened: (§1)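 Pots of field soil, seeds sown and soil-covered; wettable powder diluted in water sprayed on soil at 1,000 g a.i./ha (1,000 L/ha). Greenhouse-grown; herbicidal effect rated per standard at 21 days post-application.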

[2] = tested on: green foxtail (Setaria viridis (L.) P. Beauv.); assay: as above; conditions: soil surface spray, upland field soil, 1,000 g active ingredient per hectare, 21st day after application
Procedure, shortened: as §1

[3] = tested on: barnyardgrass (Echinochloa crus-galli (L.) P. Beauv. var. crus-galli); assay: as above; conditions: soil surface spray, upland field soil, 1,000 g active ingredient per hectare, 21st day after application
Procedure, shortened: as §1

[4] = tested on: slender amaranth (Amaranthus viridis L.); assay: as above; conditions: soil surface spray, upland field soil, 1,000 g active ingredient per hectare, 21st day after application
Procedure, shortened: as §1

[5] = tested on: Japanese bulrush (Scirpus juncoides Roxb.); assay: Test Example 1: herbicidal effect by soil application to paddy field; conditions: paddy field soil application; active ingredient 1,000 g per 1 hectare; wettable powder added dropwise to water surface the day after sowing; examined on the 21st day after application
Procedure, shortened: (§2)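 Plants were sown in flooded (3 cm) paddy soil and evaluated for herbicidal effect 21 days after soil application in a greenhouse.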

[6] = tested on: heartshape false pickerelweed (Monochoria vaginalis (Burm.f.) C.Presl); assay: as above; conditions: paddy field soil application; active ingredient 1,000 g per 1 hectare; wettable powder added dropwise to water surface the day after sowing; examined on the 21st day after application
Procedure, shortened: as §2

[7] = tested on: early watergrass (Echinochloa oryzicola Vasing); assay: as above; conditions: paddy field soil application; active ingredient 1,000 g per 1 hectare; wettable powder added dropwise to water surface the day after sowing; examined on the 21st day after application
Procedure, shortened: as §2

[8] = tested on: velvetleaf (Abutilon theophrasti medicus); assay: Test Example 3: herbicidal effect by application to upland field (foliage treatment); conditions: 14th day after application; for herbicidal effect, Velvetleaf: foliage treatment, 1,000 g active ingredient per 1 hectare, greenhouse; for herbicidal effect (index), Velvetleaf: foliage treatment, plants grown two weeks, 1,000 g active ingredient per hectare
Procedure, shortened: (§3)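 Post-emergence spray at 1,000 g AI/ha of wettable powder in water (1,000 L/ha), onto seedlings grown 2 weeks in greenhouse field-soil pots. Graded day 14.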

[9] = tested on: green foxtail (Setaria viridis (L.) P. Beauv.); assay: as above; conditions: 14th day after application; for herbicidal effect, Green Foxtail: foliage treatment, 1,000 g active ingredient per 1 hectare, greenhouse; for herbicidal effect (index), Green Foxtail: foliage treatment, plants grown two weeks, 1,000 g active ingredient per hectare
Procedure, shortened: as §3

[10] = tested on: barnyardgrass (Echinochloa crus-galli (L.) P. Beauv. var. crus-galli); assay: as above; conditions: 14th day after application; for herbicidal effect, Barnyardgrass: foliage treatment, 1,000 g active ingredient per 1 hectare, greenhouse; for herbicidal effect (index), Barnyardgrass: foliage treatment, plants grown two weeks, 1,000 g active ingredient per hectare
Procedure, shortened: as §3

[11] = tested on: slender amaranth (Amaranthus viridis L.); assay: as above; conditions: 14th day after application; for herbicidal effect, Slender Amaranth: foliage treatment, 1,000 g active ingredient per 1 hectare, greenhouse; for herbicidal effect (index), Slender Amaranth: foliage treatment, plants grown two weeks, 1,000 g active ingredient per hectare
Procedure, shortened: as §3

SMILES	herbicidal effect (index), Velvetleaf [1]	herbicidal effect (index), Green Foxtail [2]	herbicidal effect (index), Barnyardgrass [3]	herbicidal effect (index), Slender Amaranth [4]	herbicidal effect, Scirpus juncoides Roxb. [5]	herbicidal effect, Monochoria vaginalis (Burm. f.) C. Presl [6]	herbicidal effect, Echinochloa oryzicola Vasing [7]	herbicidal effect, Velvetleaf [8]	herbicidal effect, Green Foxtail [9]	herbicidal effect, Barnyardgrass [10]	herbicidal effect, Slender Amaranth [11]	herbicidal effect (index), Velvetleaf [8]	herbicidal effect (index), Green Foxtail [9]	herbicidal effect (index), Barnyardgrass [10]	herbicidal effect (index), Slender Amaranth [11]
CCn1ncc(C(=O)c2ccc(C(F)(F)F)n(CC3CCCO3)c2=O)c1O (stereo not shown) [IV-205]	5 (90% or more of herbicidal effect and crop phytotoxicity)	5 (90% or more of herbicidal effect and crop phytotoxicity)	5 (90% or more of herbicidal effect and crop phytotoxicity)	5 (90% or more of herbicidal effect and crop phytotoxicity)	5 (90% or more of herbicidal effect and crop phytotoxicity)	5 (90% or more of herbicidal effect and crop phytotoxicity)	5 (90% or more of herbicidal effect and crop phytotoxicity)	5 (90% or more of herbicidal effect and crop phytotoxicity)	5 (90% or more of herbicidal effect and crop phytotoxicity)	5 (90% or more of herbicidal effect and crop phytotoxicity)	5 (90% or more of herbicidal effect and crop phytotoxicity)	–	–	–	–
Cn1ncc(C(=O)c2ccc(C(F)(F)F)n(-c3cc(F)cc(F)c3)c2=O)c1O [IV-80]	5 (90% or more of herbicidal effect and crop phytotoxicity)	5 (90% or more of herbicidal effect and crop phytotoxicity)	5 (90% or more of herbicidal effect and crop phytotoxicity)	5 (90% or more of herbicidal effect and crop phytotoxicity)	5 (90% or more of herbicidal effect and crop phytotoxicity)	5 (90% or more of herbicidal effect and crop phytotoxicity)	5 (90% or more of herbicidal effect and crop phytotoxicity)	5 (90% or more of herbicidal effect and crop phytotoxicity)	5 (90% or more of herbicidal effect and crop phytotoxicity)	5 (90% or more of herbicidal effect and crop phytotoxicity)	5 (90% or more of herbicidal effect and crop phytotoxicity)	–	–	–	–
CCCn1c(C(F)(F)F)ccc(C(=O)c2cnn(C)c2OC(=O)c2ccccc2)c1=O [IV-4]	5 (90% or more of herbicidal effect and crop phytotoxicity)	5 (90% or more of herbicidal effect and crop phytotoxicity)	5 (90% or more of herbicidal effect and crop phytotoxicity)	5 (90% or more of herbicidal effect and crop phytotoxicity)	5 (90% or more of herbicidal effect and crop phytotoxicity)	5 (90% or more of herbicidal effect and crop phytotoxicity)	5 (90% or more of herbicidal effect and crop phytotoxicity)	5 (90% or more of herbicidal effect and crop phytotoxicity)	4 (70 to less than 90% of herbicidal effect and crop phytotoxicity)	5 (90% or more of herbicidal effect and crop phytotoxicity)	5 (90% or more of herbicidal effect and crop phytotoxicity)	–	–	–	–
C=CCn1c(C(F)(F)F)ccc(C(=O)C2=C(OC)CCCC2=O)c1=O [II-25]	5 (90% or more of herbicidal effect and crop phytotoxicity)	5 (90% or more of herbicidal effect and crop phytotoxicity)	5 (90% or more of herbicidal effect and crop phytotoxicity)	5 (90% or more of herbicidal effect and crop phytotoxicity)	5 (90% or more of herbicidal effect and crop phytotoxicity)	5 (90% or more of herbicidal effect and crop phytotoxicity)	5 (90% or more of herbicidal effect and crop phytotoxicity)	5 (90% or more of herbicidal effect and crop phytotoxicity)	5 (90% or more of herbicidal effect and crop phytotoxicity)	5 (90% or more of herbicidal effect and crop phytotoxicity)	5 (90% or more of herbicidal effect and crop phytotoxicity)	–	–	–	–
CC(C)CNn1c(C(F)(F)F)ccc(C(=O)C2=C(O)CCCC2=O)c1=O [I-162]	5 (90% or more of herbicidal effect and crop phytotoxicity)	5 (90% or more of herbicidal effect and crop phytotoxicity)	5 (90% or more of herbicidal effect and crop phytotoxicity)	4 (70 to less than 90% of herbicidal effect and crop phytotoxicity)	5 (90% or more of herbicidal effect and crop phytotoxicity)	5 (90% or more of herbicidal effect and crop phytotoxicity)	5 (90% or more of herbicidal effect and crop phytotoxicity)	5 (90% or more of herbicidal effect and crop phytotoxicity)	5 (90% or more of herbicidal effect and crop phytotoxicity)	5 (90% or more of herbicidal effect and crop phytotoxicity)	5 (90% or more of herbicidal effect and crop phytotoxicity)	–	–	–	–
Cc1ccc(-n2c(C(F)(F)F)ccc(C(=O)C3=C(O)CCCC3=O)c2=O)cc1 [I-89]	5 (90% or more of herbicidal effect and crop phytotoxicity)	5 (90% or more of herbicidal effect and crop phytotoxicity)	5 (90% or more of herbicidal effect and crop phytotoxicity)	5 (90% or more of herbicidal effect and crop phytotoxicity)	5 (90% or more of herbicidal effect and crop phytotoxicity)	5 (90% or more of herbicidal effect and crop phytotoxicity)	5 (90% or more of herbicidal effect and crop phytotoxicity)	–	–	–	–	5 (90% or more of herbicidal effect and crop phytotoxicity)	5 (90% or more of herbicidal effect and crop phytotoxicity)	5 (90% or more of herbicidal effect and crop phytotoxicity)	5 (90% or more of herbicidal effect and crop phytotoxicity)
COc1ccc(-n2c(C(F)(F)F)ccc(C(=O)C3=C(O)CCCC3=O)c2=O)cc1OC [I-100]	5 (90% or more of herbicidal effect and crop phytotoxicity)	4 (70 to less than 90% of herbicidal effect and crop phytotoxicity)	5 (90% or more of herbicidal effect and crop phytotoxicity)	5 (90% or more of herbicidal effect and crop phytotoxicity)	5 (90% or more of herbicidal effect and crop phytotoxicity)	5 (90% or more of herbicidal effect and crop phytotoxicity)	5 (90% or more of herbicidal effect and crop phytotoxicity)	–	–	–	–	5 (90% or more of herbicidal effect and crop phytotoxicity)	4 (70 to less than 90% of herbicidal effect and crop phytotoxicity)	5 (90% or more of herbicidal effect and crop phytotoxicity)	5 (90% or more of herbicidal effect and crop phytotoxicity)
Cc1nn(C)c(O)c1C(=O)c1ccc(C(F)(F)F)n(-c2ccc(F)c(F)c2)c1=O [IV-86]	5 (90% or more of herbicidal effect and crop phytotoxicity)	5 (90% or more of herbicidal effect and crop phytotoxicity)	5 (90% or more of herbicidal effect and crop phytotoxicity)	5 (90% or more of herbicidal effect and crop phytotoxicity)	4 (70 to less than 90% of herbicidal effect and crop phytotoxicity)	5 (90% or more of herbicidal effect and crop phytotoxicity)	5 (90% or more of herbicidal effect and crop phytotoxicity)	5 (90% or more of herbicidal effect and crop phytotoxicity)	4 (70 to less than 90% of herbicidal effect and crop phytotoxicity)	5 (90% or more of herbicidal effect and crop phytotoxicity)	5 (90% or more of herbicidal effect and crop phytotoxicity)	–	–	–	–
